Source: patent publication US20110288052A1, “NOVEL COMPOUNDS, PHARMACEUTICAL COMPOSITIONS CONTAINING SAME, AND METHODS OF USE FOR SAME” (priority 2008, published 2011)
Values after ≈ are worked out from the molar mass of the structure shown.

How the values were obtained:
[1] = target: rat liver acyl-CoA synthetase; settings: read-out: 50% inhibition of rat liver acyl-CoA synthetase (converted); cited from earlier work
Raji cells = settings: cited from earlier work
Vero cells = settings: cited from earlier work
Hela cells = settings: cited from earlier work
viral HIV protease = viral HIV protease (Human immunodeficiency virus type 1 group M subtype B, UniProt P04585); settings: cited from earlier work
[2] = system: MCF-7 human breast cancer cells; test: XTT cytotoxicity assay, MCF-7 (M); format: cell-based; settings: MCF7, MCF-7, 72 hours
Procedure: XTT Cytotoxicity Assay The XTT assay is a non-radioactive alternative for the [^51Cr] release cytotoxicity assay. XTT is a tetrazolium salt that is reduced to a formazan dye only by metabolically active, viable cells. The reduction of XTT is measured spectrophotometrically as OD490-OD650. To measure the cytotoxicity of specific compounds against cancer cells, 9×10^3 MCF-7 human breast cancer cells (shown in the tables as “(M)”), obtained from the American Type Culture Collection are plated per well in 96 well plates in DMEM medium with 10% fetal bovine serum, insulin, penicillin, and streptomycin. Following overnight culture at 37° C. and 5% CO2, the compounds to be tested, dissolved in DMSO, are added to the wells in 1 μl volume at the following concentrations: 80, 40, 20, 10, 5, 2.5, 1.25, and 0.625 μg/ml in triplicate. Additional concentrations are tested if required. 1 μl of DMSO is added to triplicate wells are the vehicle control. C75 is run at 40, 20, […], and 5 μg/ml in triplicate as positive controls. After 72 hours of incubation, cells are incubated for 4 hours with the XTT reagent as per manufacturer's instructions (Cell Proliferation Kit II (XTT) Roche). Plates are read at OD490 and OD650 on a Molecular Devices SpectraMax Plus Spectrophotometer. Three wells containing the XTT reagent without cells serve as the plate blank. XTT data are reported as OD490-OD650. Averages and standard error of the mean are computed using SOFTmax Pro software (Molecular Dynamics). The IC50 for the compounds is defined as the concentration of drug leading to a 50% reduction in OD490-OD650 compared to controls. The OD490-OD650 are computed by the SOFTmax PRO software (Molecular Devices) for each compound concentration. IC50 is calculated by linear regression, plotting the FAS activity as percent of control versus drug concentrations. Linear regression, best-fit line, r^2, and 95% confidence intervals are determined using Prism Version 3.0 (Graph Pad Software).

OVCAR3 cells = test: XTT cytotoxicity assay, OVCAR3 (OV); format: cell-based; settings: Homo sapiens, OVCAR-3, unit given as ml
Procedure: (§1) XTT Cytotoxicity Assay The XTT assay is a non-radioactive alternative for the [^51Cr] release cytotoxicity assay. XTT is a tetrazolium salt that is reduced to a formazan dye only by metabolically active, viable cells. The reduction of XTT is measured spectrophotometrically as OD490-OD650. To measure the cytotoxicity of specific compounds against cancer cells, 9×10^3 MCF-7 human breast cancer cells (shown in the tables as “(M)”), obtained from the American Type Culture Collection are plated per well in 96 well plates in DMEM medium with 10% fetal bovine serum, insulin, penicillin, and streptomycin. Following overnight culture at 37° C. and 5% CO2, the compounds to be tested, dissolved in DMSO, are added to the wells in 1 μl volume at the following concentrations: 80, 40, 20, 10, 5, 2.5, 1.25, and 0.625 μg/ml in triplicate. Additional concentrations are tested if required. 1 μl of DMSO is added to triplicate wells are the vehicle control. C75 is run at 40, 20, […], and 5 μg/ml in triplicate as positive controls. After 72 hours of incubation, cells are incubated for 4 hours with the XTT reagent as per manufacturer's instructions (Cell Proliferation Kit II (XTT) Roche). Plates are read at OD490 and OD650 on a Molecular Devices SpectraMax Plus Spectrophotometer. Three wells containing the XTT reagent without cells serve as the plate blank. XTT data are reported as OD490-OD650. Averages and standard error of the mean are computed using SOFTmax Pro software (Molecular Dynamics). The IC50 for the compounds is defined as the concentration of drug leading to a 50% reduction in OD490-OD650 compared to controls. The OD490-OD650 are computed by the SOFTmax PRO software (Molecular Devices) for each compound concentration. IC50 is calculated by linear regression, plotting the FAS activity as percent of control versus drug concentrations. Linear regression, best-fit line, r^2, and 95% confidence intervals are determined using Prism Version 3.0 (Graph Pad Software). The test was also run against OVCAR3 cells (“OV”), and HCT116 cells (“H”).

Weight loss screen = format: in vivo, Balb/C mice; settings: 60 mg/ml (so in the source), day 1
Procedure: Weight Loss Screen Balb/C mice (Jackson Labs) are utilized for the initial weight loss screening. Animals are housed in temperature and 12 hour day/night cycle rooms and fed mouse chow and water ad lib. Three mice are utilized for each compound tested with vehicle controls in triplicate per experiment. For the experiments, mice are housed separately for each compound tested three mice to a cage. Compounds are diluted in DMSO at 10 mg/ml and mice are injected intraperitoneally with 60 mg/kg in approximately 100 μl of DMSO or with vehicle alone. Mice are observed and weighed daily; average weights and standard errors are computed with Excel (Microsoft). The experiment continues until treated animals reach their pretreatment weights.

HCT116 cells = test: XTT cytotoxicity assay, HCT116 (H); format: cell-based; settings: Homo sapiens, HCT-116
Procedure: as §1

[3] = Solubility problem noted during the assays; format: physicochemical; settings: noted under the 14C column, unit inferred; read-out: Sol Prob (solubility problem at concentration)
[4] = system: MCF-7 human breast cancer cells (fatty acid oxidation pathway activity); test: Fatty acid oxidation ([14C]palmitate to acid soluble products); format: cell-based
Procedure: Measurement of Fatty Acid Oxidation and Determination of SC150 of Compounds This assay measures the degradation of [^14C]palmitate into acid soluble products and is a measure of fatty acid oxidation pathway activity in vitro. It is utilized to measure fatty acid oxidation in vitro. MCF-7 human breast cancer cells cultured as above, are plated at 2.5×10^5 cells per well in 24-well plates. Following overnight incubation, the compounds to be tested, solubilized in DMSO, are added at […], 0.39, 1.56, 6.25, 25, and 100 μg/ml in triplicate, with lower concentrations tested if necessary. DMSO is added to triplicate wells for a vehicle control. C75 is run at 5 and 10 μg/ml in triplicate as positive controls. After 1 hour of incubation, medium is removed 100 uM of [^14C] palmitate in cyclodextran and 200 uM carnitine in serum free medium (250 μl volume) is added to each well. After 30 minutes of additional incubation, the reaction is stopped by addition of 2.6N HClO4. Contents of each well are transferred to 1.5 ml Eppendorf tubes and 4N KOH is added. The tubes are incubated for 30 minutes at 60° C. 1 M NaAcetate and 3N H2SO4 is added to each tube and vortexed. The tubes are centrifuged at 1000 rpm for 5 minutes at RT. 250 μl of the supernatant is transferred to a 2 ml eppendorf tube. To each tube is added: 938 μl of chloroform:methanol (1:1), 468 μl chloroform and 281 μl of deionized water. The tubes are vortexed and centrifuged at 1000 rpm for 5 minutes at RT. 750 μl of the upper phase is transferred into a scintillation vial 5 ml of scintillant is added and vials are counted for 1 minute for ^14C. The Beckman Scintillation counter calculates the average cpm values for triplicates. The SC150 for the compounds is defined as the concentration of drug leading to a 150% increase in production of acid soluble products of [^14C] palmitate as compared to untreated controls. This is determined by plotting the average cpm for each inhibitor concentration tested, performing linear regression and computing the best-fit line, r^2 values, and 95% confidence intervals. The average cpm values are computed by the Beckman scintillation counter (Model LS6500) for each compound concentration. Computation of linear regression, best-fit line, r^2, and 95% confidence intervals are calculated using Prism Version 3.0 (Graph Pad Software). If a compound fails to achieve this 150% threshold it is considered negative. The maximum value achieved is also reported (FAO Max).

## CCCC=CCC=CC=CC=NN=NO [Triacsin C, 1-hydroxy-3-(E,E,E-2′,4′,7′-undecatrienylidine) triazene]
[1]
  IC50: 8.7 µM
Raji cells
  growth inhibition in Raji cells: growth inhibition
Vero cells
  growth inhibition of Vero cells: inhibit growth
Hela cells
  growth inhibition of Hela cells: inhibit growth

## C/C=C/C/C=C/CCC(=O)[C@H]1O[C@H]1C(N)=O [cerulenin, (2S,3R)-2,3-epoxy-4-oxo-7,10 dodecadienoyl amide]
Viral HIV protease
  concentration at which viral HIV protease is inhibited: 5 mg/mL

## CCCCCCCCC1(C)SC(=O)C=C1OCC(=O)Nc1ccc(F)cc1 (stereo not drawn)
[2]
  IC50: 6.5 µg/mL (≈ 16.5 µM)
OVCAR3 cells
  IC50: 11.1 µg/mL (≈ 28.2 µM)
Weight loss screen
  Weight Loss: 60 mg/ml: 2.4% (day 1)
HCT116 cells
  IC50: 5.6 µg/mL (≈ 14.2 µM)
[3]
  solubility: 80 µg/mL (≈ 203 µM)
[4]; Homo sapiens, MCF7, at 1.56 μg/ml, read-out: FAO Max
  Emax at 1.56 µg/mL: 106%
[4]; concentration leading to 150% of control acid soluble products, Neg = threshold not reached
  FAO SC 150: Neg
